≈ marks a conversion by molar mass, not a printed value.
Settings: buffer; pH 7.4; 200.0 µM

Structure (SMILES)	solubility kinetic [µg/mL]
O=C(Cc1ccc(Cl)cc1)NCCc1ccc(F)cc1	19.4 (≈ 66.5 µM)
c1ccc(P(c2ccccn2)c2ccccn2)cc1	> 39.6
Cc1ccc(CNC(=O)CNC(=O)c2ccc(C(C)(C)C)cc2)n1C	> 51.2
CCOc1ccc(OCC)c(S(=O)(=O)n2cc(C)nc2CC)c1	10.6 (≈ 31.3 µM)
Nc1ccc(CN2CCOCC2)cc1	> 28.8
O=C(O)c1nccnc1C(=O)Nc1ccc(Cl)cc1Cl	> 46.8
COC(=O)CSc1ncc(S(=O)(=O)c2ccccc2)c(=O)[nH]1	> 51.1
COCCOC(=O)C1=C(C)NC2(O)c3ccccc3C(=O)C12O (stereo not given)	> 47.9
Cc1ccc2c(ccc(=S)n2C)c1	24.1 (≈ 127 µM)
Cc1ccc(Sc2nc(C)c([N+](=O)[O-])c(C)c2C#N)cc1	0.7 (≈ 2.34 µM)
CCn1c(C)cc(C(=O)COC(=O)c2cccnc2SC)c1C	3.7 (≈ 11.1 µM)
Cc1cc(C)c(S(=O)(=O)NCc2ccc3c(c2)OCO3)c(C)c1	1.7 (≈ 5.1 µM)
COC(=O)CC(c1ccc(C#N)cc1)n1c(C)ccc1C (stereo not given)	> 42.4
Cc1nccc(-c2cccc(NC(=O)c3ccccc3Cl)c2)n1	35 (≈ 108 µM)
CCOC(=O)c1ccc(NC(=S)Nc2cccc(N)n2)cc1	2.3 (≈ 7.27 µM)
CCOc1ncccc1C(=O)Nc1ccccc1F	2.5 (≈ 9.61 µM)
O=Cc1ccc(Sc2ncccn2)o1	24.2 (≈ 117 µM)
Cc1cccc(NC(=O)COC(=O)[C@@H]2CCCN2C(=O)c2cccs2)c1	2.8 (≈ 7.52 µM)
CC(=O)c1ccc(N2CCN(C(=O)c3ccc(S(=O)(=O)NCc4ccco4)cc3)CC2)cc1	4.9 (≈ 10.5 µM)
c1coc(-c2ccnc(-n3cccc3)n2)c1	1.6 (≈ 7.57 µM)
O=[N+]([O-])c1cccc(/C=C/c2ccc3cccc(O)c3n2)c1	< 0.3
NC(=O)c1sc2nc3c(cc2c1N)CCCCCC3	22.3 (≈ 81 µM)
Cn1c(=O)c(C(=O)NCC2CCCO2)c(O)c2ccccc21 (stereo not given)	15.2 (≈ 50.3 µM)
Cc1cccc(-c2nc(CNC(=O)c3ccco3)cs2)c1	> 44.8

Structure (SMILES)	solubility kinetic [µg/mL]
CCCc1nc2ccccc2c(=O)n1CCc1ccccc1	1.7 (≈ 5.81 µM)
Cc1ccc(NC(=O)CCc2nc3ccccc3s2)c(O)c1	8.9 (≈ 28.5 µM)
CC1=C(C(=O)NCc2ccc(Cl)cc2)C2(CCC(C)CC2)OC1=O (stereo not given)	4.3 (≈ 12.4 µM)
Cc1ncc([N+](=O)[O-])n1CC(=O)Nc1ccc(Br)cc1	9.9 (≈ 29.2 µM)
CC1=CC=CC2=NC(=O)CC(C)(C(=O)O)N12 (stereo not given)	> 33
Brc1cc(Br)cc(CN2CCSCC2)c1	< 0.8
COC(=O)CCC(=O)Nc1cccc([N+](=O)[O-])c1	> 37.8
CC(C)(C)c1ccc(-c2ncccc2O)cc1.Cl	10.6
CC(Cl)C(=O)Nc1cc(C(C)(C)C)nn1-c1ccccc1 (stereo not given)	> 45.9
O=[N+]([O-])c1cnc2ccc3ccccc3c2c1	3.1 (≈ 13.8 µM)
O=S(=O)(NOCc1ccc(Cl)cc1)c1ccc(Cl)cc1	< 0.7
CN(c1ccccc1)c1nc(N)c([N+](=O)[O-])c(Nc2ccccc2F)n1	< 0.1
CCOc1ccc(N2CC(C(=O)N3CC(C)OC(C)C3)CC2=O)cc1 (stereo not given)	> 52
CN(C(=O)/C=C/c1ccccc1)C1CCCCC1	35.1 (≈ 144 µM)
Fc1ccc(Nc2nc(-c3ccncc3)cs2)cc1	0.8 (≈ 2.95 µM)
CSc1nc2sc3c(c2c(=S)[nH]1)CC(C)(C)OC3	10.6 (≈ 35.5 µM)
CN1C(=O)/C(=C\c2ccc(N(C)C)cc2)OC1=S	< 0.3
CNCCCC12CCC(c3ccccc31)c1ccccc12	38.6 (≈ 139 µM)
O=C(COc1ccc(C(=O)c2ccccc2)cc1)Nc1cccnc1	> 49.9
CC(=O)N1CCN(CC(O)Cn2c3ccccc3c3ccccc32)CC1 (stereo not given)	> 52.7
O=C(Nc1ccccc1)Nc1cccc2ccccc12	0.3 (≈ 1.14 µM)
CN1C(=O)NC(c2ccccc2Cl)C2=C1CC(C)(C)CC2=O (stereo not given)	> 47.8
CC1CCCCC1NC(=O)c1ccco1 (stereo not given)	> 31.1
Cc1ccc(CNS(=O)(=O)c2ccc(F)c(F)c2)n1C	> 45

Structure (SMILES)	solubility kinetic [µg/mL]
O=C(COC(=O)C1CC2CCCC(C1)C2=O)Nc1ccc(F)c(Cl)c1 (stereo not given)	54.9 (≈ 149 µM)
O=[N+]([O-])c1cc(/C=N/N2CCOCC2)cs1	> 36.2
COc1ccc(CCNCc2ccccc2F)cc1.O=C(O)C(=O)O	46.4
CC(C)[C@H](NC(=O)NCCC1=CCCCC1)C(=O)O	> 40.3
COc1cc(C2NC(=O)c3ccccc3O2)ccc1OC(C)C (stereo not given)	5.9 (≈ 18.8 µM)
Cc1ccc(C)c(NC(=S)NCCc2c[nH]c3ccccc23)c1	17.1 (≈ 52.9 µM)
Cc1cc(NC(=O)CN2C(=O)NC(CCc3ccccc3)C2=O)no1 (stereo not given)	> 51.4
O=C(CSC1=NCCN1)Nc1ccccc1[N+](=O)[O-]	> 42
CCOc1ccc(OCC)c(S(=O)(=O)NCc2ccccc2)c1	40.7 (≈ 121 µM)
COc1cccc(NC(=O)CCN2CCOCC2)c1.Cl	> 45.1
CCCN1C(=O)C2(SC(NC(C)=O)=NN2C(C)=O)c2cc(C)cc(C)c21 (stereo not given)	> 56.2
COCCNC(=O)CN1C2CCC1CC(O)(c1cccnc1)C2 (stereo not given)	> 47.9
FC(F)(F)c1ccccc1NC(=S)Nc1ccccc1	21.6 (≈ 72.9 µM)
COc1ccc(/C=C/C(=O)NC(=S)NCc2ccccc2)cc1OC	2.4 (≈ 6.73 µM)
CN(Cc1ccccc1)C(=O)COC(=O)c1cc(=O)[nH]c2ccccc12	34.4 (≈ 98.2 µM)
O=c1nc(/C=C/c2ccc(Cl)cc2Cl)cc(C(F)(F)F)[nH]1	7.3 (≈ 21.8 µM)
CC12COC3(C(=O)Nc4ccccc4)CC1CCC32C (stereo not given)	> 40.7
CCOc1ccccc1NC(=O)c1ccc(CN2CCc3ccccc3C2)cc1	2.3 (≈ 5.95 µM)
N#Cc1cccnc1N1CCN(C(=O)COCC(=O)O)CC1	41 (≈ 135 µM)
O=C(O)C1CC=CCC1C(=O)NCCCN1CCCC1=O (stereo not given)	> 44.2
CN(CC(=O)Nc1ccc(F)cc1)CC(=O)NC1CCCCC1	> 48.2
CN1CCN(C(=O)CNC(=O)C23CC4CC(CC(C4)C2)C3)CC1	> 47.9
Cc1c(C)n(CCc2ccccc2)c2ncnc(NCCCN(C)C)c12	> 52.7
O=C(NCCc1ccccc1)C(=O)c1c[nH]c2ccccc12	0.4 (≈ 1.37 µM)

Structure (SMILES)	solubility kinetic [µg/mL]
CC(NC(=O)c1ccc(Br)s1)c1ccncc1 (stereo not given)	> 46.7
COc1ccc(C(=O)N(Cc2ccccc2)c2cccc(C)c2)cc1	15.8 (≈ 47.7 µM)
CCC(CC)C(=O)c1c[nH]c(C(=O)NC2CCCCCC2)c1	2 (≈ 6.57 µM)
COc1ccc(CC(CN)c2ccccc2)cc1 (stereo not given)	29.5 (≈ 122 µM)
O=C(c1cccc(C(F)(F)F)c1)N1CCN(CCc2ccccc2)CC1	> 54.4
O=C(COC(=O)c1ccccc1O)NCCc1c[nH]c2ccccc12	7.8 (≈ 23.1 µM)
CCOCCCNC(=S)N1CCC(C(=O)c2ccc(C)cc2)CC1	51.8 (≈ 149 µM)
Br.CC(Cc1ccc(O)cc1)NCC(O)c1cc(O)cc(O)c1 (stereo not given)	> 57.6
COc1ccccc1/C=C/C(=O)NC1CC2CCC1C2 (stereo not given)	2 (≈ 7.37 µM)
COc1ccc(NC(=O)C2C3CCC(O3)C2C(=O)O)c(C)c1 (stereo not given)	45.4 (≈ 149 µM)
O=C(Nc1ccc(F)cc1)N1CCCN(c2ccc(C(F)(F)F)cn2)CC1	2.2 (≈ 5.75 µM)
Nc1c(NCc2ccccc2)c(=O)c1=O	5.9 (≈ 29.2 µM)
CCCNC(=O)NC(=O)CN1CCCC1c1ccc2c(c1)OCCO2 (stereo not given)	> 52.1
CN1C(=O)Cc2cc(S(=O)(=O)NCc3cccs3)ccc21	> 48.4
O=C(NC(=S)Nc1ccc2nc[nH]c2c1)c1ccccc1	35 (≈ 118 µM)
CC1C(=O)NC(=O)C1c1ccccc1 (stereo not given)	> 28.4
Cc1noc2ncnc(N3CCN(c4ccc(F)cc4)CC3)c12	1.7 (≈ 5.43 µM)
COc1ccc(CCN(C)C(=O)c2ccc3c(=O)n4c(nc3c2)CCCCC4)cc1OC	> 65.3
Cc1cc(Nc2cccc(Br)c2)c2ccccc2n1	11.9 (≈ 38 µM)
O=C(NN=C1CCCCCC1)c1ccncc1	> 34.7
COC(=O)c1ccc(S(=O)(=O)c2ccc([N+](=O)[O-])cc2)cc1	0.9 (≈ 2.8 µM)
O=C1C2C3C=CC(C4CC34)C2C(=O)N1c1cccc2ccccc12 (stereo not given)	42.7 (≈ 135 µM)
Cn1c(CNC(=O)C2CCCCC2)cc2ccccc21	1.7 (≈ 6.29 µM)
O=C1NC(=Nc2ccccc2)S/C1=C\c1cccs1	1 (≈ 3.49 µM)

Structure (SMILES)	solubility kinetic [µg/mL]
CN(C)c1ccc(/C=N/O)cc1	> 24.6
Cn1cccc1C(=O)OCC(=O)N1c2ccccc2NC(=O)C1(C)C	12.7 (≈ 37.2 µM)
CCOc1ccccc1NC(=S)NCCc1ccc(F)cc1	25.4 (≈ 79.8 µM)
CC(=O)Nc1ccc(NC(=O)C2C3CCC(C3)C2C(=O)O)cc1 (stereo not given)	> 47.5
O=C(CSc1ncnc2sc3c(c12)CCCC3)NC1CCS(=O)(=O)C1 (stereo not given)	18.6 (≈ 46.8 µM)
O=[N+]([O-])c1ccc(N2CCN(c3cccc(Cl)c3)CC2)cn1	2.6 (≈ 8.16 µM)
Cc1ccc(C(=O)N2CCCCC2C(=O)O)o1 (stereo not given)	> 35.6
O=C1CC2(CCCC2)C(=O)N1CN1CCN(S(=O)(=O)c2ccc(F)cc2F)CC1	> 64.1
Cc1ccc(N2CC(=O)Nc3c(sc4nc(C)cc(C)c34)C2=O)cc1	0.6 (≈ 1.71 µM)
S=C(Nc1cccnc1)N1CCN(c2ccccc2Cl)CC1	44.2 (≈ 133 µM)
CCOc1ncccc1C(=O)Nc1cc(S(=O)(=O)N2CCOCC2)ccc1OCC(F)(F)F	0.5 (≈ 1.02 µM)
O=C(O)CC1(CC(=O)NCc2ccc(Cl)cc2)CCCCC1	> 48.6
CSc1nc(NCC(C)O)c2c3c(sc2n1)CN(C)CC3 (stereo not given)	44.7 (≈ 138 µM)
CC1CCN(S(=O)(=O)c2ccc(Cl)s2)CC1	15.3 (≈ 54.7 µM)
CC(=O)Nc1ccc(C(=O)NC2CCSc3ccccc32)cc1 (stereo not given)	16.6 (≈ 50.9 µM)
O=C(COC(=O)Cn1cnc2ccccc2c1=O)Nc1ccccc1OC(F)F	15.8 (≈ 39.2 µM)
COc1ccc(S(=O)(=O)N2CCN(C)CC2)cc1	> 40.6
CC(C)NC(=O)CN1CCC(c2nc3ccccc3[nH]2)CC1	> 45.1
CSCCC(=O)Nc1nc(-c2ccccn2)cs1	> 41.9
C=CCNc1ccc(N2C(=O)CCCC2=O)cc1[N+](=O)[O-]	> 43.4
CCSc1ccccc1C(=O)Nc1ccc2c(c1)OCO2	13.8 (≈ 45.8 µM)
O=C(NCc1ccccc1)C(=O)Nc1cccc(C(=O)O)c1	> 44.7
O=[N+]([O-])c1cccc2c(S(=O)(=O)N3CCCCC3)cccc12	9.5 (≈ 29.7 µM)
O=c1nc(-c2ccccc2)nc(-c2ccccc2)[nH]1	22.9 (≈ 91.9 µM)

Source: PubChem BioAssay AID1996
